Laboratory results published in publication PMC11149620 (Journal of medicinal chemistry, 2024).
Where two headings read alike, the source gives them in different places. Where no end group is shown, it is not given here.

Key:
ATAD2 BRD = conditions: induces dimerization of the ATAD2 BRD to block binding to acetylated histones; cited from earlier work
[1] = biological target: T1, human ATAD2B BRD-containing protein (residues 953–1085) (Homo sapiens, UniProt Q9ULI0); conditions: read-out: KD for ATAD2B; ITC; cited from earlier work
T1 sequence (Q9ULI0 953-1085): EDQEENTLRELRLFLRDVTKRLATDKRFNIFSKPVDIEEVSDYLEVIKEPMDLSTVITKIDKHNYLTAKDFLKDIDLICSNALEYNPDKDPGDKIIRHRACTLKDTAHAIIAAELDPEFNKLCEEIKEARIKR

[2] = biological target: T1, human ATAD2B BRD-containing protein (residues 953–1085); assay: ITC of histone peptides with the ATAD2B BRD
[3] = biological target: T2, Human ATAD2 BRD-containing protein (residues 966–1112) (Homo sapiens, UniProt Q6PL18); conditions: read-out: KD for ATAD2; ITC; cited from earlier work
T2 sequence (Q6PL18 966-1112): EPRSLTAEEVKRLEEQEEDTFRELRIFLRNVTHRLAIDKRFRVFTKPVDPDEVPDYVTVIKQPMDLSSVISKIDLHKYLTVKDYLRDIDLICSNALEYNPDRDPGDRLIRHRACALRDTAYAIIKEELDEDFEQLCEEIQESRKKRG

COc1cc(Cl)c(C(=O)N[C@@H](CN[C@H]2CC[C@@H](N)CC2)Cc2ccc(C#N)cc2)cc1-c1ccc(CN[C@H](C)c2ccc(C)cc2)o1 [BAY-850]
IC50 (ATAD2 BRD): 0.02 µM

H4K5ac (1–15): wild-type histone H4K5ac ligand residues 1–15, values from earlier papers
Kd [1]: 5.2 ± 1 µM

SGRGKTGGK(Ac)ARAKAKSR-NH2 [H2A.XK9ac (1–17)]
Kd [2]: 90 ± 12.8 µM

SGRGKacQGGKARA [H2AK5ac (1–12)]
Kd [3]: 38.9 ± 5.9 µM
Kd [1]: 42.5 ± 2.9 µM
